Test results from patent publication US20030216319A1, “Specific autoimmune reactions against isomerised/optically inverted epitopes: application for treatment of autoimmune diseases” (priority 2000, published 2003).

What was measured:
[1] = tested on: RA autoantibodies; experiment: Competition ELISA: binding of RA autoantibodies to Thy-GA-Trp-Leu-*Asx-Gly-Lys-Glu-Tyr coated plates (Example 3); parameters: species or system human; details: competitor 50 μl of 50 μg/ml pre-incubated with serum 17 hours at 4° C.; 6 RA sera
Description: The Thy-GA-Trp-Leu-*Asx-Gly-Lys-Glu-Tyr conjugate was dissolved in PBS to a final concentration of 10 μg/ml, and 100 μL of this solution is pipetted into the wells of a micro-titre-plate (MTP, flat-well polysorb, Nunc). the plate was blocked as described (Bonde et al 1994), and serum samples diluted one-hundred fold in 10 mM Na-phosphate, 140 mM NaCl, 0.1% tween-20, 1% BSA pH 7.4 (assay buffer) were added. The MTP was left for one hour ±5 minutes on a rotary shaker at 20° C. The plates were washed five times in washing buffer (25 mM tris, 140 mM NaCl, 0.1% tween-20 pH 7.4), by a manual plate washer. One-hundred μL assay buffer containing a one-thousand fold dilution of Perxidase conjugated rabbit anti human λ-chains (Dako 063) and κ-chains (Dako 013) was added into each well. The MTP was again incubated for one hour ±5 minutes on a rotary mixer at 20° C. After 5 times washing, 100 μl of peroxidase substrate was added (3,3′,5,5′ tetramethylbenzidine dihydrochloride (TMB), Kirkegaard & Perry Laboratories, USA) and incubated for 15±2 minutes at room temperature (18-22° C.) in the dark. After addition of 0.18 M H2SO4, the absorbency was measured at 450 nm.
The experiment was carried out as follows. Serum samples were diluted one-hundred fold in 10 mM Na-phosphate, 140 mM NaCl, 0.1% tween-20, 1% BSA pH 7.4 (assay buffer). Two-hundred μl was added to 1.5 ml polypropylene tubes followed by addition of 50 μl of the following reagents dissolved in assay buffer at a concentration of 50 μg/ml:
The tubes were placed at 4° C. for 17 hours, and one-hundred μl of the mixture was added into MTP coated with Thy-GA-Trp-Leu-*Asx-Gly-Lys-Glu-Tyr conjugate. The assay was performed as described above under example 2.

[2] = tested on: auto-antibodies reactive with isomerised IgG Fc Asn-315 derived peptides; experiment: Homogeneous RIA with 125I Thy-GA-Trp-Leu-*Asx-Gly-Lys-Glu-Tyr tracer, competition with peptides (Example 4); assay type: binding, human; details: highest concentration (10,000 ng/ml); P-0.01 by Student's T-Test
Description: A homogeneous RIA assay was developed for measurement of auto-antibodies with reactivity towards the isomerised form of the epitope Trp-Leu-Asn-Gly-Lys-Glu-Tyr derived from the IgG CH2 region. The assay was performed by incubating serum samples with ^125I Thy-GA-Trp-Leu-*Asx-Gly-Lys-Glu-Tyr overnight followed by precipitation of immune-complexes with protein A Sepharose.
Serum samples are diluted 1:200 in IMP buffer (IMP-buffer: 10 mm Na-Phosphate, pH 7.4, 140 mM NaCl, 5 mM EDTA, 0.5% Triton X-100, 0.1% BSA, 10 μg/ml soy-bean trypsin inhibitor). A Thy-GA-Trp-Leu-*Asx-Gly-Lys-Glu-Tyr conjugate is prepared as described in example 2 and iodinated with ^125I using the chloramine T protocol: 100 μg of the conjugate is diluted in 0.25 M Na2HPO4 to a total volume of 140 μl. 1.5 mCi Na^125I is added followed by 10 μL Chloramin-T (1 mg/ml, prepared freshly). The solution is vortexed for 30 seconds and 150 μL methionine (1 mg/ml) is added and immediately vortexed for 120 sec. The tracer is purified on size exclusion column (type: BIOSEP SEC S-2000, size: 300×7.80 mm) equilibrated with PBS containing 1% BSA Plow rate 1.0 ml/min. 500 μl fractions are collected and analysed in a scintillation counter (γ-counter). The fractions containing the tracer are pooled and used in the homogeneous RIA assay format. […]

[3] = tested on: human immunoglobulin; experiment: Homogeneous RIA with 125I-BSA-BS3-Pro-Ser-Glu-γ-Gly-Lys-Gly-Arg-Gly in MS and control sera (Example 9); assay type: binding
Description: For this purpose the MBP derived octapeptide Pro-Ser-Glu-γ-Gly-Lys-Gly-Arg-Gly (γL) was manufactured synthetically using standard FMOC chemistry. The peptide was conjugated to bovine serum albumin (BSA) by Bis[sulfosuccinimidyl]suberate (BS^3) according to the manufacturers instructions (Pierce) and iodinated with ^125I using the chloramine T protocol as described in Example 4.
Serum from 9 MS-patients and 8 healthy persons are reacted overnight with ^125I-BSA-BS^3-Pro-Ser-Glu-γ-Gly-Lys-Gly-Arg-Gly followed by precipitation of immune complexes with protein A Sepharose. Serum samples are diluted 1:200 in IMP buffer. The ^125I BSA-BS^3-Pro-Ser-Glu-γ-Gly-Lys-Gly-Arg-Gly tracer is diluted in IMP buffer (to an activity of 100000 CPM/25 μl). Seventy-five μl of diluted serum sample is mixed with 25 μl tracer and 25 μl of either IMP buffer or free (unconjugated/unlabelled) Pro-Ser-Glu-γ-Gly-Lys-Gly-Arg-Gly peptide (in a concentration of […] in IMP buffer) is added to this mixture. This mixture is incubated overnight at 4° C. Protein. A Sepharose (PAS) 20 μl/sample vial is weighed out and washed 3 times with 10 ml IMP washing buffer, and transferred to eppendorf 1.5 ml tubes using a repeater pipette. The PAS is sedimented by centrifugation at 2000 RPM 2 min., and the supernatant is aspirated using a suction device (or a pipette). […]

[4] = tested on: immunoaffinity purified RA auto-antibodies; experiment: Immuno-blotting of cellulose-bound spot peptides with immunoaffinity purified RA auto-antibodies (Example 5); assay type: binding, human; details: IgM RF eluate 1 μg/mL
Description: 1. IgG is coupled to CNBr activated Sepharose using the manufacturers instructions (Pharmacia, Upsala, Sweden).
2. The IgG Sepharose is packed in a suitable column (i.e. a disposable DG10 column, BioRad laboratories, Richmond, Calif.). The column is washed with at least 10 column volumes PBS and with 10 column volumes 0.1 M sodium acetate, 0.15 M sodium chloride pH 3.5 and finally equilibrated in PBS.
3. Serum from RA patients is diluted 10 times in PBS and loaded on the column. The column is washed with PBS until the absorbency (OD 280 nm) reaches base-line.
4. Bound RF's are eluted with 0.1 M sodium acetate, 0.15 M sodium chloride pH 3.5.
5. IgM is separated from IgG and IgA by gel-filtration on a Sephadex G-200 column in 0.1 M sodium acetate, 0.15 M sodium chloride pH 3.5.
6. Eluted IgM is diluted in PBS-BT to 1 μg/mL and assayed as described below.
Seven amino-acid peptides extending over the Asn-315 residue were synthesised by spot synthesis using Whatman 540 paper (Maidstone, U.K.), using the previously described procedures (Frank, 1992, Kramer et al 1994). The peptides were automatically prepared using a spot synthesis method (Abimed, Langenfeld, FRG). The following peptides were synthesised, covalently attached via the carboxy-terminus:
The cellulose membrane containing these peptides was incubated with the immunoaffinity purified RA auto-antibodies purified as described above. […]

Substance: Thy-GA-Trp-Leu-*Asx-Gly-Lys-Glu-Tyr: peptide coupled to thyroglobulin with glutaraldehyde
- competition of binding of RA autoantibodies to Thy-GA-Trp-Leu-*Asx-Gly-Lys-Glu-Tyr coated plates [1]: able to compete out the binding
- reactivity in competition RIA (percent inhibition by competing peptide), group basis [2]: significant reactivity

Substance: Pro-Ser-Glu-γ-Gly-Lys-Gly-Arg-Gly
- inhibition of binding of tracer conjugate to human immunoglobulin by free peptide ([3]; 25 μl free peptide, 10 μl/mL in IMP buffer): could be specifically inhibited
- % inhibition of immunoglobulin binding by free peptide, MS sera compared to control sera ([3]; p=0.008, two-tailed non-parametric t-test): significantly higher

Substance: His-Gln-Asp-Trp-Leu-Asp-β-Gly... [peptide IV]
- reactivity of purified RA auto-antibodies towards cellulose-bound peptide [4]: strong reactivity
